From PubChem BioAssay AID1963445 (Molecular Pharmacology Branch, DTP, NCI, 2024)
“And” between values parts separate entries of the source, which are not always exact repeats. Equal values may be shown once.

Tested on: MCF7 complex spheroid growth, % test/control
Assay: Anticancer human tumor MCF7 cell line growth inhibition [Asc];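 note: spheroids exposed to compounds for 7 days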;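 for viability, T/C: 100% = DMSO vehicle control wells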
Conditions: for viability, T/C: stronger effect = lower value
Procedure: Multicellular complex tumor spheroid response to apoptosis pathway targeting inhibitors Alrizomadlin, Pelcitoclax, and Dasminapant in combination with a variety of drugs and investigational agents in selected tumor cell lines
The MDM2 inhibitor alrizomadlin, the Bcl-2/Bcl-xL inhibitor pelcitoclax, and the IAPs inhibitor dasminapant were evaluated both individually and in combination with standard of care and investigational anticancer small molecules within a complex spheroid model of solid tumors. . Complex spheroids include a stromal component modeled by human endothelial cells (HUVEC) and fibroblasts modeled by human mesenchymal stem cells (MSCs). The concentration ranges selected for each drug and investigational agent were based upon clinically achievable concentrations if the clinical Cmax of the agent was known.
Compounds. The drugs and investigational agents: alrizomadlin (APG-115; NSC831270), pelcitoclax (APG-1252; NSC835773), dasminapant (APG-1387;NSC834197), TAK-243 (NSC785004), copanlisib (NSC809693), olaparib (NSC753686), talazoparib (NSC767125), cobimetinib (NSC 768068), eltanexor (KPT-8602, NSC 794443), abemaciclib (NSC 768073), sotorasib (NSC818433), adagrasib (NSC 831453), MRTX-1133 (NSC 836407), Iadademestat (ORY1001, NSC 806812), and RMC-4630 (NSC839698), were obtained from the NCI Developmental Therapeutics Program Chemical Repository. The FDA-approved anticancer drug set is available from the Developmental Therapeutics Program at https://dtp.cancer.gov/organization/dscb/obtaining/available plates.htm. […] The stock solutions were prepared in dimethyl sulfoxide (DMSO, Sigma-Aldrich, St. Louis, MO, cat. D2650) at 800-fold the tested concentration and stored at -70 degrees C prior to their use. All drugs and investigational agents were tested over a range starting from a high concentration at or near the clinical Cmax and decreasing in half-log increments. If the clinical Cmax for an agent had not been determined, the highest concentration tested was 10 microM.
The patient-derived cancer (PDC) cell lines include five colon adenocarcinomas: 186277-243-T-J2-PDC, 616215-338-R-J1-PDC, 439559-082-T-J2-PDC, 463943-066-T-J2-PDC, and 519858-162-T-J1-PDC; three pancreatic carcinomas: 323965-272-R-J2-PDC, 521955-158-R6-J3-PDC, and 521955-158-R2-J5-PDC; two uterine sarcomas: 327498-152-R-J2-PDC and 993429-296-R-J1-PDC; two rhabdomyosarcomas: 755483-174-R-J1-PDC and 772245-204-R-J1-PDC; two soft tissue sarcomas: 126254-015-R-J1-PDC and 494315-158-R-J1-PDC; two malignant fibrous histiocytomas: 317291-083-R-J1-PDC and 596521-263-R-J1-PDC; two breast carcinomas: 171881-019-R-J1-PDC and 885512-296-R-J2-PDC; and one ovarian carcinoma: 6556581-035-R-J-PDC were obtained from the NCI PDMR, (https://pdmr.cancer.gov). The established cell lines HSSY-2 synovial sarcoma (RRID:CVCL 8719), SYO-1 synovial sarcoma (RRID:CVCL_7146), MPNST malignant peripheral neural sheath tumor were obtained from the Sloan Kettering Institute. The following established cell lines were purchased from the American Type Culture Collection (ATCC, Manassas, VA), Sor the received from the NCI repository:, PANC-1 pancreatic carcinoma (CRL-1469, RRID:CVCL_0480), OVCAR-5 ovarian carcinoma (RRID:CVCL_1628), OVCAR-8 ovarian carcinoma (RRID:CVCL_1629), , MCF-7 breast carcinoma (CRL-12584, RRID:CVCL_0031), MDA-MB-231 breast carcinoma (CRL-12532, RRID:CVCL_0062), NCI-H1876 small cell lung carcinoma (CRL-5902, RRID:CVCL_1503), NCI-H510A small cell lung carcinoma (HTB-184, RRID:CVCL_1565), NCI-H1417 (CRL-5869, RRID:CVCL_1469), and NCI-H196 small cell lung carcinoma (CRL-5823, RRID:CVCL_1509). Dr. Peter Houghton (Greehey Children's Cancer Research Institute, University of Texas Health Science Center, San Antonio, TX) provided Rh-18 rhabdomyosarcoma (RRID:CVCL_1659). Pooled donor human umbilical vein endothelial cells (HUVEC, Lonza, cat. CC-2519) and human mesenchymal stem cells (hMSC, Lonza, cat. PT-2501) were purchased from Lonza (Walkersville, MD).
Cell Culture. […]

[1] = compound alone, run of 11/07/2022

In the case of `C#Cc1c(F)ccc2cc(O)cc(-c3ncc4c(N5CC6CCC(C5)N6)nc(OCC56CCCN5CC(F)C6)nc4c3F)c12` (centres undefined), the viability, T/C (compound 0.0316 µM) is reported as 97% and 87.3% and 92.6%, the viability, T/C (compound 0.1 µM) is reported as 102% and 115% and 97.1% and the viability, T/C (compound 0.316 µM) is reported as 94.8% and 96.2% and 101%. For the same compound, the viability, T/C (compound 1 µM) was 103% and 97.7% and 108%, the viability, T/C (compound 3.16 µM) was 90.2% and 99% and 101% and the viability, T/C (compound 10 µM) was 87.2% and 87.3% and 87.7%. The IC50 (curve of compound) was over 10 µM.

For `C=C(F)C(=O)N1CCN(c2nc(OCC3CCCN3C)nc3c2CCN(c2cccc4cccc(Cl)c24)C3)CC1CC#N` (centres undefined), the viability, T/C (compound 0.0316 µM) was 82.4% and 98.6% and 109%, the viability, T/C (compound 0.1 µM) was 92.8% and 99.8% and 107% and the viability, T/C (compound 0.316 µM) was 90.7% and 97.9% and 95.7%. The viability, T/C (compound 1 µM) was 75.4% and 92.3% and 89.9%, the viability, T/C (compound 3.16 µM) was 31% and 80% and 72.3% and the viability, T/C (compound 10 µM) was 0.38% and 0.28% and 0.27%. The IC50 (curve of compound) was 1.94 µM and 4.85 µM and 4.36 µM.

With `C=CC(=O)N1CCN(c2nc(=O)n(-c3c(C)ccnc3C(C)C)c3nc(-c4c(O)cccc4F)c(F)cc23)C(C)C1` (centres undefined) the viability, T/C (compound 0.0316 µM) was 92.7% and 99.7% and 107%, the viability, T/C (compound 0.1 µM) was 90.9% and 101% and 93.8% and the viability, T/C (compound 0.316 µM) was 85.3% and 99.8% and 90.6%. For the same compound, the viability, T/C (compound 1 µM) was 91.7% and 121% and 102%, the viability, T/C (compound 3.16 µM) was 81.7% and 103% and 114% and the viability, T/C (compound 10 µM) was 75% and 76.2% and 103%. It also gave an IC50 (curve of compound) of over 10 µM.

`CCN1C(C(=O)NC23CCC(C(=O)O)(CC2)CC3)C(c2cccc(Cl)c2F)C2(C(=O)Nc3cc(Cl)ccc32)C12CCCCC2` (centres undefined) was tested, and the viability, T/C (compound 0.00949 µM) was 102% [middle of 9 runs], the viability, T/C (compound 0.0949 µM) was 48.1% [middle of 9 runs] and the viability, T/C (compound 0.3 µM) was 33.8% [middle of 9 runs]. The viability, T/C (compound 0.949 µM) was 23.2% [middle of 9 runs], the viability, T/C (compound 3 µM) was 15.6% [middle of 9 runs] and the IC50 [1] was 94.5 nM [middle of 7 runs]. For the same compound, the IC50 (curve of compound) was 0.0709 µM and 0.108 µM.

In the case of `CCN1CCN(Cc2ccc(Nc3ncc(F)c(-c4cc(F)c5nc(C)n(C(C)C)c5c4)n3)nc2)CC1`, the viability, T/C (compound 0.00316 µM) is reported as 111% and 93.3% and 96.7%, the viability, T/C (compound 0.01 µM) is reported as 95.5% and 104% and 99.9% and the viability, T/C (compound 0.0316 µM) is reported as 103% and 93.3% and 99.2%. The viability, T/C (compound 0.1 µM) was 116% and 96.6% and 91.2%, the viability, T/C (compound 0.316 µM) was 99% and 97% and 81.4% and the viability, T/C (compound 1 µM) was 74.3% and 86.7% and 72.5%. For the same compound, the IC50 (curve of compound) was over 1 µM.

With `CNC(C)C(=O)NC1CN(S(=O)(=O)c2cccc(S(=O)(=O)N3CCC4CCC(C(=O)NC(c5ccccc5)c5ccccc5)N4C(=O)C(NC(=O)C(C)NC)C3)c2)CCC2CCC(C(=O)NC(c3ccccc3)c3ccccc3)N2C1=O` (centres undefined) the viability, T/C (compound 0.01 µM) was 14.2% [middle of 9 runs], the viability, T/C (compound 0.0316 µM) was 11.7% [middle of 9 runs] and the viability, T/C (compound 0.1 µM) was 14.7% [middle of 8 runs]. The viability, T/C (compound 0.316 µM) was 13.2% [middle of 9 runs], the viability, T/C (compound 1 µM) was 13.2% [middle of 9 runs] and the IC50 (compound alone, run of 11/15/2022) was under 0.00316 µM. The IC50 (curve of compound) was 0.00524 µM and 0.00667 µM.

`COc1c(OCCCN2CCOCC2)ccc2c3n(c(=NC(=O)c4cnc(N)nc4)nc12)CCN3` was tested, and the viability, T/C (compound 0.00316 µM) was 79.3% and 87.5% and 83.6%, the viability, T/C (compound 0.01 µM) was 76.8% and 80.8% and 61.1% and the viability, T/C (compound 0.0316 µM) was 56.2% and 55.1% and 46.3%. The viability, T/C (compound 0.1 µM) was 29.5% and 33.3% and 43%, the viability, T/C (compound 0.316 µM) was 12.4% and 14.6% and 17.5% and the viability, T/C (compound 1 µM) was 8.01% and 9.89% and 10%. For the same compound, the IC50 (curve of compound) was 0.045 µM and 0.0536 µM and 0.0224 µM.

With `Cc1c(S(C)(=O)=O)c(-c2cc(F)cc(N3CCN(c4ccc(NS(=O)(=O)c5ccc(NC(CCN6CCC(C(=O)OCCCP(=O)(O)O)CC6)CSc6ccccc6)c(S(=O)(=O)C(F)(F)F)c5)cc4)CC3)c2)c(-c2ccc(Cl)cc2)n1C(C)C` (centres undefined) the viability, T/C (compound 0.0316 µM) was 90.5% [middle of 7 runs], the viability, T/C (compound 10 µM) was 166% [middle of 7 runs] and the IC50 [1] was over 10 µM.

For `Cc1nc(N2CCC3(CC2)COC(C)C3N)c(CO)nc1Sc1ccnc(N)c1Cl` (centres undefined), the viability, T/C (compound 0.00949 µM) was 89.4% and 87.6% and 92.8%, the viability, T/C (compound 0.03 µM) was 89.1% and 113% and 107% and the viability, T/C (compound 0.0949 µM) was 86.5% and 90.9% and 95.4%. For the same compound, the viability, T/C (compound 0.3 µM) was 82.5% and 93.3% and 94.7%, the viability, T/C (compound 0.949 µM) was 16.5% and 27% and 73% and the viability, T/C (compound 3 µM) was 11.1% and 14.7% and 16.4%. The IC50 (curve of compound) was 0.529 µM and 0.636 µM and 1.52 µM.

For `Cn1ncnc1[C@H]1c2n[nH]c(=O)c3cc(F)cc(c23)N[C@@H]1c1ccc(F)cc1`, the viability, T/C (compound 0.000316 µM) was 95.7% and 82.9% and 96.4%, the viability, T/C (compound 0.001 µM) was 97.3% and 106% and 99.9% and the viability, T/C (compound 0.00316 µM) was 97.1% and 107% and 101%. The viability, T/C (compound 0.01 µM) was 63.8% and 84.2% and 67.2%, the viability, T/C (compound 0.0316 µM) was 60% and 87.7% and 88.1% and the viability, T/C (compound 0.1 µM) was 48.8% and 84.9% and 75.1%. The IC50 (curve of compound) was over 0.1 µM.

`NC(=O)C(=Cn1cnc(-c2cc(C(F)(F)F)cc(C(F)(F)F)c2)n1)c1cncnc1` was tested, and the viability, T/C (compound 0.000949 µM) was 113% and 86% and 71.3%, the viability, T/C (compound 0.003 µM) was 95.1% and 90% and 67.6% and the viability, T/C (compound 0.00949 µM) was 81.6% and 81.3% and 64.6%. For the same compound, the viability, T/C (compound 0.03 µM) was 83.8% and 96.8% and 60.7%, the viability, T/C (compound 0.0949 µM) was 41.4% and 32.1% and 51.5% and the viability, T/C (compound 0.3 µM) was 16% and 17.7% and 24.4%. The IC50 (curve of compound) was 0.0834 µM and 0.0658 µM and 0.0949 µM.

In the case of `NC1CCC(NC2CC2c2ccccc2)CC1` (centres undefined), the viability, T/C (compound 0.000316 µM) is reported as 89.7% and 112% and 107%, the viability, T/C (compound 0.001 µM) is reported as 115% and 132% and 136% and the viability, T/C (compound 0.00316 µM) is reported as 128% and 133% and 125%. The viability, T/C (compound 0.01 µM) was 129% and 106% and 132%, the viability, T/C (compound 0.0316 µM) was 136% and 104% and 108% and the viability, T/C (compound 0.1 µM) was 102% and 147% and 137%. It also gave an IC50 (curve of compound) of over 0.1 µM.

`O=C(c1cc(Cc2n[nH]c(=O)c3ccccc23)ccc1F)N1CCN(C(=O)C2CC2)CC1` was tested, and the viability, T/C (compound 0.0316 µM) was 104% and 99% and 94.7%, the viability, T/C (compound 0.1 µM) was 90.7% and 89.4% and 111% and the viability, T/C (compound 0.316 µM) was 95.8% and 90.3% and 114%. The viability, T/C (compound 1 µM) was 104% and 121% and 97.4%, the viability, T/C (compound 3.16 µM) was 81.3% and 87.6% and 46.4% and the viability, T/C (compound 10 µM) was 71.4% and 72.6% and 15.8%. The IC50 (curve of compound) was > 10 µM and 2.91 µM.

`O=C(c1ccc(F)c(F)c1Nc1ccc(I)cc1F)N1CC(O)([C@@H]2CCCCN2)C1` was tested, and the viability, T/C (compound 0.00316 µM) was 104% and 101% and 102%, the viability, T/C (compound 0.01 µM) was 92.1% and 89.8% and 79.8% and the viability, T/C (compound 0.0316 µM) was 100% and 92.2% and 90.3%. For the same compound, the viability, T/C (compound 0.1 µM) was 99% and 111% and 102%, the viability, T/C (compound 0.316 µM) was 91.3% and 97.2% and 97.5% and the viability, T/C (compound 1 µM) was 86.5% and 89.6% and 87.4%. For the same compound, the IC50 (curve of compound) was over 1 µM.
